In patent publication US9994566B2, “Compound of 5-hydroxyl-1,7-naphthyridine substituted by aryl or heteroaryl, preparation method thereof and pharmaceutical use thereof” (SHENYANG SUNSHINE PHARMACEUTICAL CO. LTD., priority 2015, dated 2018):
pIC50: −log10 of the molar value. Several values for one entry are separate records, joined by “and”; a condition that tells them apart may be missing. Equal entries are not always repeated.

Legend:
[1] = test system: hepatoma cells Hep3B; assay: Promotion of erythropoietin (EPO) expression in hepatoma cells Hep3B in vitro (ELISA); format: cell-based, Human; details: Hep3B supernatant, 24 hours, test doses 100 μmol/L and 10 μmol/L (dose of the tabulated value not given)
Excerpt: Biological Example 1: Development and Screening of In Vitro Detection Methods: Promotion of Erythropoietin Expression in Hepatoma Cells Hep3B In Vitro by HIF-PHD2 Inhibitor Compounds
The complete medium for culture of Experimental hepatoma cells Hep3B (China Center for Type Culture Collection, CCTCC) was MEM (Cat# GNM 41500, GIBCO, provided by Hangzhou Genom Biopharmaceutical Technology Co., Ltd) supplemented with 10% serum FBS (Cat#10099-141, GIBCO) and 1% P/S (Cat#GNM15140, provided by Hangzhou Genom Biopharmaceutical Technology Co., Ltd). Cells were cultured in a 37° C., 5% CO2 incubator. Experimental reagents included dimethyl sulfoxide (for molecular biology, >=99.9%, Catalog # D8418) purchased from Sigma. The ELISA kit was purchased from Quantikine IVD ELISA, Human Erythropoietin (R&D, DEP00). The test control AKB-6548 was prepared by the inventors or obtained by commercial purchase. The test substance was stored at −20° C. in the dark.
The test substance and the positive control substance were fully dissolved in sterile water or dimethylsulfoxide under dark conditions and prepared into a stock solution at a concentration of 10^−1 mol/L or 10^−2 mol/L. Each of the stock solutions was stored at −20° C. MEM medium containing 0.5% FBS was used as a diluent to dilute the stock solution of the test substance, to prepare a diluted test substance at a concentration of 100 μmol/L and 10 μmol/L. To a 96-well culture plate was added 200 μl/well (1.5 or 2.0×10^4 cells/well) of hepatoma cells Hep3B complete medium suspension and incubated overnight at 37° C. in a 5% CO2 incubator. The solution in the 96-well culture plate was removed and the cells were washed once with the MEM medium containing 0.5% FBS. 200 μl/well of the test substance was added in the dark, at a dose of 100 μmol/L and 10 μmol/L, and each dose set 2 wells, a test well and a spare well. A cell control well was prepared by replacing the test solution with the diluent (without test substance and solvent). A solvent control well was prepared by replacing the test solution with the diluent containing the corresponding concentration of solvent (dimethylsulfoxide) (without test substance). They were cultured in a 5% CO2 incubator at 37° C. for 24 hours. The supernatant was absorbed as a sample and cryopreserved at −20° C. for use. 100 μl/well of stop solution was added. OD value was detected by microplate reader A450 nm-A600 nm. The expression level of EPO (mIU/mL) promoted by the test substance was obtained according to the standard curve.

[2] = biological target: HIF Prolyl hydroxylases 2 (PHD2) (Homo sapiens, UniProt Q9GZT9); assay: PHD2 inhibition, fluorescence polarization (FP) detection of HIF-1α / VBC complex interaction; format: biochemical; details: PHD2 0.5 μg/μl, FAM-HIF (556-575) 1 μM, 30 minutes room temperature
Chain of HIF Prolyl hydroxylases 2 (PHD2) (Q9GZT9 whole entry, species assumed): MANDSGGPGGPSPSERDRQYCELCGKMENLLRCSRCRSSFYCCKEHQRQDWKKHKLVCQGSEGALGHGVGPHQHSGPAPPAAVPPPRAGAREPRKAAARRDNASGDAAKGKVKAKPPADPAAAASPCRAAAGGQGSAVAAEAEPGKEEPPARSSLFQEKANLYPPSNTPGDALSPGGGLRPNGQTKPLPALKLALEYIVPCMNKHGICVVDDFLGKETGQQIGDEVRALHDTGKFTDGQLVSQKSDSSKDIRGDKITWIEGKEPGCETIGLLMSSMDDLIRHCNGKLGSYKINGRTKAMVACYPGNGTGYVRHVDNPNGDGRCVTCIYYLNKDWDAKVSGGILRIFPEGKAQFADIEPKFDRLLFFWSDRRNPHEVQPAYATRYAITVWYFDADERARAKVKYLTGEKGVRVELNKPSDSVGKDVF
Description: The interaction between hypoxia-inducible factor HIF-1α and VBC complex (von Hippel-Lindau protein-Elongin B-Elongin C, VBC) was detected by Fluorescence polarization (FP) method, to measure the enzyme inhibitory activity of the HIF Prolyl hydroxylases 2 (PHD2) inhibitor compounds.
Subsequently, the desired concentration of the test compound or the positive compound was added (the compound was replaced by the buffer in the negative control and the positive control). Finally, PHD2 was added at a final concentration of 0.5 μg/μl (PHD2 was replaced by the buffer in the negative control). They were mixed well and allowed to stand at room temperature for 30 minutes in the dark followed by 95° C. water bath for 1 minute, and then the reaction was terminated. After the temperature drops to room temperature, the sample was prepared well for use. EBC buffer (50 mM Tris.HCl, 120 mM NaCl, 0.5% NP-40) was added to the corresponding wells of a black 96-well test plate. A GST-VBC complex was added to the corresponding test wells at a final concentration of 300 nM (using the wells containing only EBC buffer as blank wells). Subsequently, the corresponding PHD2 prolyl hydroxylation reaction sample was added in the dark as a substrate with a final concentration of 100 nM. After mixing well, the lateral and longitudinal fluorescence intensity values were measured using a full-wavelength multifunctional microplate reader (TECAN infinite M1000) at an excitation wavelength of […] and an emission wavelength of 518 nm.
The fluorescence polarization (mP) was calculated: mP=1000×(lateral value−G factor×longitudinal value)/(lateral value+G factor×longitudinal value) wherein, lateral value=lateral fluorescence intensity value of test well−lateral fluorescence intensity value of blank well, longitudinal value=longitudinal fluorescence intensity value of test well−longitudinal fluorescence intensity value of blank well, […]
The IC50 was calculated using the non-linear regression data analysis method of Graphpad Prism 4.0 software ([…]).

[3] = test system: male Balb/c mice; assay: Effect on increasing erythrocyte of normal mice: reticulocyte (RETIC) count; format: in vivo; details: 25 mg/kg, oral, once a day × 3, four hours after the last administration; for RETIC, individual mice (Mice No. 1-8): one value per mouse; for RETIC, Average: orbital blood
Description: Biological Example 3: Effect of the Compounds of the Present Invention on Increasing Erythrocyte of Normal Mice
80 male Balb/c mice were divided into 11 groups, with 8 animals for each drug group, 10 animals for blank control group. Drug group: AKB-6548, 100 mg/kg, oral administration, once a day×3; FG-4592, 25 mg/kg, oral administration, once a day×3; EPO, 100 IU/kg, Day 1 and Day 3, subcutaneous injection, as positive control groups. Each of the compounds of the present invention was orally administrated at 25 mg/kg, once a day×3. Four hours after the last administration, orbital blood of all animals were collected and treated with EDTA-K2 anticoagulant, and reticulocytes (RETIC) were counted with a blood cell automated analyzer.

SMILES	EPO level of the test substance [1] [mIU/mL]	pIC50 [2]	RETIC, individual mice (Mice No. 1-8) [3]	RETIC, Average [3]
COc1cccc(-c2ccc3c(O)c(C(=O)NCC(=O)O)ncc3n2)c1 [Compound 15]	6.316	5.11	4.9 (3×) and 4.6 and 4.1 and 3.7 and 3.8 and 3.1	4.25
O=C(O)CNC(=O)c1ncc2nc(-c3ccc(C(F)(F)F)cc3)ccc2c1O [Compound 23, 2-{5-hydroxy-[2-(4-trifluoromethyl)-phenyl]-[1,7]-napthyridine-6-formamido} acetic acid]	0.72	5.28	2.9 and 3.2 (3×) and 3 and 5.1 and 9.1	4.24
